*: point of attachment. pNA = O=[N+]([O-])c1ccc(N*)cc1; AMC = Cc1cc(=O)oc2cc(N*)ccc12
Assays:
caspase-7 = target: T1, caspase-7 (Homo sapiens, UniProt P55210); experiment: Fluorimetric peptide substrate cleavage assay, caspase-7; format: biochemical; settings: for cleavage of peptide substrate by caspase-7: fluorimetric in vitro assay
T1 sequence (P55210 24-198 limits assumed): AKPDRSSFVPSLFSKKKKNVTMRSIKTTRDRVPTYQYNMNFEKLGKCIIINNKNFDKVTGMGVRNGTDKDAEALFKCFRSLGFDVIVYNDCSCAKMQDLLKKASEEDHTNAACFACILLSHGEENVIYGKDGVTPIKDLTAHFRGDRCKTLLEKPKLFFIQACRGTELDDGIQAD
T1 sequence (P55210 207-303 limits assumed): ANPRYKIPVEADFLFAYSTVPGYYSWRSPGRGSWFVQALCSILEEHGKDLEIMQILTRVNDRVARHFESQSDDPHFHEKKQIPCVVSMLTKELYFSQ
Text: (§1) FIG. 8: Effect of different proteases—other caspases and calpain—on cleavage of the peptide substrate Ac-DFVE-AMC. The 1/KM-value for caspase-3 was normalized to 1, and 1/KM-values of other caspases/proteases are shown in relation to that value. […] The functional proteolytic activity of all proteases used was confirmed with the typical peptide substrate of each protease.
To this end, fluorimetric in vitro assays using the specific cleavage sites coupled to indicator dyes were established. Caspase-3 and the structurally almost identical caspase-7 (Wei et al., 2000) cleaved both substrates, DEVD and DFVE, with a highly reproducible Michaelis-Menten kinetic. […] We measured a KM-value for DEVD which compared well to existing literature data (Table 1), whereas the KM-value for DFVE was in the range of some other rare substrates of caspase-3 (Table 1). This differential substrate affinity allows to screen for specific inhibitors of vMLC1 cleavage, which would, however, not affect the cleavage of most other known substrates of caspase-3 and 7.
(§2) As p35 inhibits all effector caspases (subtypes 1,3,6,7,8 and 10; e.g., Zhou et al., Biochemistry 1998; 37:10757), our concern was whether the observed beneficial effects of p35 in heart failure were really due to inhibition of caspase-3 and of the structurally almost identical caspase-7. Especially, we sought to exclude that the decrease in vMLC1 cleavage in the presence of p35 was due to predominant inhibition of a different caspase, and to exclude that the cleavage of vMLC1 was induced by caspase-3 only indirectly acting via other effector caspases. Therefore, we tested all these enzymes for their capacity to cleave Ac-DFVE-AMC. […] However, the highly homologous caspase-7 cleaved the new substrate DFVE with almost 1 log scale lower affinity compared to caspase-3.

[1] = target: T2, recombinant human caspase-3 (CPP32) (Homo sapiens, UniProt P42574); experiment: Fluorimetric peptide substrate cleavage assay, caspase-3; format: biochemical; settings: fluorimetric in vitro assay
T2 construct: purified, active recombinant human caspase-3 (CPP32); purchased BD Biosciences Pharmingen, Heidelberg, Germany
T2 sequence (P42574 29-175 limits assumed): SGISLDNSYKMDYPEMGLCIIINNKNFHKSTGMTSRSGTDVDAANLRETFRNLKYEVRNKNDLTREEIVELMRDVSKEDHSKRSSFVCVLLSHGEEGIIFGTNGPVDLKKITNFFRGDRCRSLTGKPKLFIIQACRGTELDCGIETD
T2 sequence (P42574 176-277 limits assumed): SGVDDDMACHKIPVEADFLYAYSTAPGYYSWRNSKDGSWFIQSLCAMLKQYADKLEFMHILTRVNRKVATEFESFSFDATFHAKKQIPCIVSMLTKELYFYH
Method: The rate of caspase-3 enzyme activity could be measured by enzymatic cleavage and release of AMC from the Ac-DEVD-AMC caspase substrate (Biosyntan, Berlin, Germany). This parameter was measured as emission at 460 nm upon excitation at 380 nm using U.V. spectrofluorometry.
Ac-DFVE-AMC was synthesized by Biosyntan, Berlin, Germany, with a purity of 93.5%. The peptide lyophilised as trifluoracetic acid salt was reconstituted in DMSO to 100 mM. 5 μg of purified, active recombinant human caspase-3 (CPP32) from BD Biosciences Pharmingen, Heidelberg, Germany, were diluted in 100 μl 50 mM Tris, pH 8.0, with 100 mM NaCl, 50 mM imidazole.
The reaction buffer contained 20 mM HEPES, 100 mM NaCl, 10 mM DTT, 1 mM EDTA, 0.1 % (w/v) CHAPS, 10% sucrose, pH 7.2 and the indicated concentrations of Ac-DFVE-AMC. Caspase-3 was added to reaction mixture at a final concentration of 3 nM.
After preincubation for 10 min at 37° C., the released fluorogenic AMC was monitored every second minute for 20 min in a spectrofluorometer at an excitation wavelength of 380 nm and an emission wavelength of 460 nm.
Initial velocities and substrate concentrations were fit by non linear regression to the Michaelis-Menten equation. Lineweaver-Burk plots were calculated.

caspase-3 = target: T3, caspase-3 (Homo sapiens, UniProt P42574); settings: chromogenic peptide substrates; J Biol Chem. 1997 Apr 11; 272(15):9677-82; cited from earlier work
T3 sequence (P42574 29-175 limits assumed): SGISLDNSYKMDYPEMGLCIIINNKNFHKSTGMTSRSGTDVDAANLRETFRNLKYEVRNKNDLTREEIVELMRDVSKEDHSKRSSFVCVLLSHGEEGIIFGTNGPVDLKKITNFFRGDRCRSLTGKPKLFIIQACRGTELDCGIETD
T3 sequence (P42574 176-277 limits assumed): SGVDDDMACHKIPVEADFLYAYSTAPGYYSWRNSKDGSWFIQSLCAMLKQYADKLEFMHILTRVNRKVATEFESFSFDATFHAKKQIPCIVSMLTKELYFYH

other caspases = experiment: Ac-DFVE-AMC cleavage by other caspases; format: biochemical; settings: physiological substrate concentrations
Text: as §1, §2

calpain-I = target: T4, calpain-I (Homo sapiens, UniProt P07384); experiment: Ac-DFVE-AMC cleavage by calpain-I; format: biochemical; settings: physiological substrate concentrations
T4 sequence (P07384 1-714): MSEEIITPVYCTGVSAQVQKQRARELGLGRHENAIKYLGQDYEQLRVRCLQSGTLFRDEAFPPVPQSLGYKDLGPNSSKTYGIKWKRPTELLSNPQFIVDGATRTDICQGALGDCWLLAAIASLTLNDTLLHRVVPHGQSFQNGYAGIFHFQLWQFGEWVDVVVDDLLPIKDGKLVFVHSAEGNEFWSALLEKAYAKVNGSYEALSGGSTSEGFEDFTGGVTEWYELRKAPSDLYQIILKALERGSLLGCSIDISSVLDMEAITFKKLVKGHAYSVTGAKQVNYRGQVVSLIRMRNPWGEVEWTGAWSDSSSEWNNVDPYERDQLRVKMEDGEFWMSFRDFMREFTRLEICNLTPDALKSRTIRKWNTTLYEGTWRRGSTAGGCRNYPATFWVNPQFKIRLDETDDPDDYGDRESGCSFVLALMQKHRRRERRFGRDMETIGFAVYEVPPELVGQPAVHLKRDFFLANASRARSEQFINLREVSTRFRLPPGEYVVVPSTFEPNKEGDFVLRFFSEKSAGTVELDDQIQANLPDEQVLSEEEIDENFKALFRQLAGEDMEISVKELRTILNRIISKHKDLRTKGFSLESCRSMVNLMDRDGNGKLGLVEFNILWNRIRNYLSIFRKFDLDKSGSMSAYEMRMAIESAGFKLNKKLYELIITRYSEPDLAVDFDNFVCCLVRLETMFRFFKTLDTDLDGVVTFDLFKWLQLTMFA
T4 sequence (P04632 1-268 partner): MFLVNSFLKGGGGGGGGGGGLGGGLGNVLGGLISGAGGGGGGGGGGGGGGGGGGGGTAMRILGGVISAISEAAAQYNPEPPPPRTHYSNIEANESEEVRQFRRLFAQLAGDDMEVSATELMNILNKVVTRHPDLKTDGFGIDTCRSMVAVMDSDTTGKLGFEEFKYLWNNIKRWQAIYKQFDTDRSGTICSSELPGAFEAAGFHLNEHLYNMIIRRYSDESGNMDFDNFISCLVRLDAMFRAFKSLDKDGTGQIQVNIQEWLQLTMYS
Text: as §1, §2

[2] = tested on: caspase-3 activation in failing myocardium; settings: rabbit CHF, rapid ventricular pacing; Laugwitz et al., 2001; cited from earlier work

## Ac-DEVD-AMC
caspase-7
  cleavage of peptide substrate by caspase-7: cleaved
[1]
  cleavage of peptide substrate by caspase-3: cleaved

## Ac-DEVD-pNA
caspase-3
  Km: 11 µM

## Ac-DFVE-{AMC}
caspase-7
  cleavage of peptide substrate by caspase-7: can specifically cleave
caspase-7; relative to caspase-3
  affinity of caspase-7 for the substrate, lower compared to caspase-3: ~1 log scale
Other caspases
  cleavage of substrate by other caspases: no cleavage was detectable
[1]
  cleavage of peptide substrate by caspase-3: can specifically cleave
calpain-I
  cleavage of substrate by calpain-I: no cleavage was detectable

## Ac-DQMD-pNA
caspase-3
  Km: 44 µM

## Ac-VDVAD-pNA
caspase-3
  Km: 67 µM

## Ac-VEID-pNA
caspase-3
  Km: 250 µM

## Ac-VQVD-pNA
caspase-3
  Km: 510 µM

## Ac-YEVD-pNA
caspase-3
  Km: 370 µM

B1: p35: potent caspase inhibitor p35, given by adenovirus-mediated gene delivery (protein, UniProt P08160 1-299, looked up)
Early 35 kDa protein: MCVIFPVEIDVSQTIIRDCQVDKQTRELVYINKIMNTQLTKPVLMMFNISGPIRSVTRKNNNLRDRIKSKVDEQFDQLERDYSDQMDGFHDSIKYFKDEHYSVSCQNGSVLKSKFAKILKSHDYTDKKSIEAYEKYCLPKLVDERNDYYVAVCVLKPGFENGSNQVLSFEYNPIGNKVIVPFAHEINDTGLYEYDVVAYVDSVQFDGEQFEEFVQSLILPSSFKNSEKVLYYNEASKNKSMIYKALEFTTESSWGKSEKYNWKIFCNGFIYDKKSKVLYVKLHNVTSALNKNVILNTIK
modifications: adenovirus-delivered
[2]
  effect of in vivo transcoronary gene delivery in failing myocardium: positive impact on sarcomeric organization and contractile performance

— US20050233405A1, “Inhibitors of caspase-3-mediated cleavage of essential ventricular myosin light chain” (ProCorde GmbH, priority 2002, published 2005)
